Test results taken from PubChem BioAssay AID1963986 (Molecular Pharmacology Branch, DTP, NCI, 2024).

Tested on: 171881-019-R-J1-PDC tumor spheroid viability
Assay: Anticancer human tumor 171881-019-R-J1-PDC patient-derived invasive breast carcinoma cell line growth inhibition [PI3K]
Details: spheroids with HUVEC and MSC; for IC50: curve of first compound; for viability, T/C: stronger effect = lower value
In short: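 Targeted small molecules plus PI3K inhibitors, half-log dose series from Cmax (default top 10 microM), were applied to heterotypic spheroids of cancer cells with HUVEC and MSCs. Viability indicated growth inhibition.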

[1] = second compound 0.00316 µM, first compound 0.0316 µM
[2] = second compound 0.00316 µM, first compound 0.1 µM
[3] = second compound 0.01 µM, first compound 0.0316 µM
[4] = second compound 0.01 µM, first compound 0.1 µM
[5] = second compound 0.0316 µM, first compound 0.0316 µM
[6] = second compound 0.0316 µM, first compound 0.1 µM
[7] = second compound 0.1 µM, first compound 0.0316 µM
[8] = second compound 0.1 µM, first compound 0.1 µM
[9] = second compound 0.316 µM, first compound 0.0316 µM
[10] = second compound 0.316 µM, first compound 0.1 µM
[11] = second compound 1 µM, first compound 0.0316 µM
[12] = second compound 1 µM, first compound 0.1 µM
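Further: spheroids exposed to compound for 7 days before viability read.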
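Wherever viability, T/C is given: 100% = DMSO vehicle-treated spheroids.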

C[C@@H](NC(=O)c1ncnc(N)c1Cl)c1ncc(C(=O)Nc2cc(C(F)(F)F)c(Cl)cn2)s1 + COc1c(OCCCN2CCOCC2)ccc2c3n(c(=NC(=O)c4cnc(N)nc4)nc12)CCN3
IC50 (second compound 0.00316 µM): 2.36 µM | IC50 (second compound 0.01 µM): 0.234 µM | IC50 (second compound 0.0316 µM): < 0.0316 µM | IC50 (second compound 0.1 µM): < 0.0316 µM | IC50 (second compound 0.316 µM): < 0.0316 µM | IC50 (second compound 1 µM): < 0.0316 µM | viability, T/C [1]: 62.5% | viability, T/C [2]: 78.9% | viability, T/C (second compound 0.00316 µM, first compound 0.316 µM): 67.5% | viability, T/C (second compound 0.00316 µM, first compound 1 µM): 62.2% | viability, T/C (second compound 0.00316 µM, first compound 3.16 µM): 45.9% | viability, T/C (second compound 0.00316 µM, first compound 10 µM): 27.2% | viability, T/C [3]: 50.9% | viability, T/C [4]: 49.9% | viability, T/C (second compound 0.01 µM, first compound 0.316 µM): 51.3% | viability, T/C (second compound 0.01 µM, first compound 1 µM): 43.4% | viability, T/C (second compound 0.01 µM, first compound 3.16 µM): 29.9% | viability, T/C (second compound 0.01 µM, first compound 10 µM): 17.9% | viability, T/C [5]: 27.5% | viability, T/C [6]: 26.9% | viability, T/C (second compound 0.0316 µM, first compound 0.316 µM): 26% | viability, T/C (second compound 0.0316 µM, first compound 1 µM): 20.8% | viability, T/C (second compound 0.0316 µM, first compound 3.16 µM): 16% | viability, T/C (second compound 0.0316 µM, first compound 10 µM): 7.51% | viability, T/C [7]: 9.3% | viability, T/C [8]: 8.92% | viability, T/C (second compound 0.1 µM, first compound 0.316 µM): 5.88% | viability, T/C (second compound 0.1 µM, first compound 1 µM): 7.2% | viability, T/C (second compound 0.1 µM, first compound 3.16 µM): 4.61% | viability, T/C (second compound 0.1 µM, first compound 10 µM): 2.13% | viability, T/C [9]: 2.53% | viability, T/C [10]: 2.04% | viability, T/C (second compound 0.316 µM, first compound 0.316 µM): 2.28% | viability, T/C (second compound 0.316 µM, first compound 1 µM): 2.25% | viability, T/C (second compound 0.316 µM, first compound 3.16 µM): 1.53% | viability, T/C (second compound 0.316 µM, first compound 10 µM): 1.06% | viability, T/C [11]: 1.22% | viability, T/C [12]: 1.54% | viability, T/C (second compound 1 µM, first compound 0.316 µM): 1.62% | viability, T/C (second compound 1 µM, first compound 1 µM): 1.3% | viability, T/C (second compound 1 µM, first compound 3.16 µM): 0.85% | viability, T/C (second compound 1 µM, first compound 10 µM): 1.04%

Cn1ncnc1[C@H]1c2n[nH]c(=O)c3cc(F)cc(c23)N[C@@H]1c1ccc(F)cc1 + COc1c(OCCCN2CCOCC2)ccc2c3n(c(=NC(=O)c4cnc(N)nc4)nc12)CCN3
IC50 (second compound 0.00316 µM): > 0.1 µM | IC50 (second compound 0.01 µM): < 0.000316 µM | IC50 (second compound 0.0316 µM): < 0.000316 µM | IC50 (second compound 0.1 µM): < 0.000316 µM | IC50 (second compound 0.316 µM): < 0.000316 µM | IC50 (second compound 1 µM): < 0.000316 µM | viability, T/C (second compound 0.00316 µM, first compound 0.000316 µM): 65.8% | viability, T/C (second compound 0.00316 µM, first compound 0.001 µM): 69.5% | viability, T/C (second compound 0.00316 µM, first compound 0.00316 µM): 62.6% | viability, T/C (second compound 0.00316 µM, first compound 0.01 µM): 75% | viability, T/C [1]: 59.7% | viability, T/C [2]: 53.5% | viability, T/C (second compound 0.01 µM, first compound 0.000316 µM): 43.3% | viability, T/C (second compound 0.01 µM, first compound 0.001 µM): 47.2% | viability, T/C (second compound 0.01 µM, first compound 0.00316 µM): 43.6% | viability, T/C (second compound 0.01 µM, first compound 0.01 µM): 49.6% | viability, T/C [3]: 41.7% | viability, T/C [4]: 42% | viability, T/C (second compound 0.0316 µM, first compound 0.000316 µM): 24.2% | viability, T/C (second compound 0.0316 µM, first compound 0.001 µM): 24.2% | viability, T/C (second compound 0.0316 µM, first compound 0.00316 µM): 21.8% | viability, T/C (second compound 0.0316 µM, first compound 0.01 µM): 24.2% | viability, T/C [5]: 23.6% | viability, T/C [6]: 20.2% | viability, T/C (second compound 0.1 µM, first compound 0.000316 µM): 7.63% | viability, T/C (second compound 0.1 µM, first compound 0.001 µM): 7.42% | viability, T/C (second compound 0.1 µM, first compound 0.00316 µM): 8.65% | viability, T/C (second compound 0.1 µM, first compound 0.01 µM): 7.87% | viability, T/C [7]: 7.14% | viability, T/C [8]: 6.55% | viability, T/C (second compound 0.316 µM, first compound 0.000316 µM): 2.06% | viability, T/C (second compound 0.316 µM, first compound 0.001 µM): 1.56% | viability, T/C (second compound 0.316 µM, first compound 0.00316 µM): 1.67% | viability, T/C (second compound 0.316 µM, first compound 0.01 µM): 1.78% | viability, T/C [9]: 2.25% | viability, T/C [10]: 1.69% | viability, T/C (second compound 1 µM, first compound 0.000316 µM): 1.89% | viability, T/C (second compound 1 µM, first compound 0.001 µM): 1.19% | viability, T/C (second compound 1 µM, first compound 0.00316 µM): 1.15% | viability, T/C (second compound 1 µM, first compound 0.01 µM): 1.21% | viability, T/C [11]: 1.01% | viability, T/C [12]: 0.97%
